Results published in PubChem BioAssay (NCI).
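Following 48 hours of exposure in 96-well plates, responses at five concentrations were used to interpolate endpoints linearly. Here, GI50 denotes the concentration required for 50% inhibition of growth. Definition used: TGI = concentration required for complete inhibition of growth.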

Tests used:
Assay in all cases: NCI tumour cell line growth inhibition, 48 h
SNB-75 CNS = test system: SNB-75 CNS
SK-OV-3 ovarian = test system: SK-OV-3 ovarian
HCC-2998 colon = test system: HCC-2998 colon
HCT-116 colon = test system: HCT-116 colon
NCI-H226 lung = test system: NCI-H226 lung
COLO 205 colon = test system: COLO 205 colon
786-0 renal = test system: 786-0 renal
SF-539 CNS = test system: SF-539 CNS
ACHN renal = test system: ACHN renal
SR leukemia = test system: SR leukemia

SMILES | GI50 (SNB-75 CNS) [µM] | TGI (SNB-75 CNS) [µM] | GI50 (SK-OV-3 ovarian) [µM] | TGI (SK-OV-3 ovarian) [µM] | GI50 (HCC-2998 colon) [µM] | TGI (HCC-2998 colon) [µM] | GI50 (HCT-116 colon) [µM] | TGI (HCT-116 colon) [µM] | GI50 (NCI-H226 lung) [µM] | TGI (NCI-H226 lung) [µM] | GI50 (COLO 205 colon) [µM] | TGI (COLO 205 colon) [µM] | GI50 (786-0 renal) [µM] | TGI (786-0 renal) [µM] | GI50 (SF-539 CNS) [µM] | TGI (SF-539 CNS) [µM] | GI50 (ACHN renal) [µM] | TGI (ACHN renal) [µM] | TGI (SR leukemia) [µM] | GI50 (SR leukemia) [µM]
C[C@@H](Oc1cc(-n2cnc3ccc(OCC4CCN(C)CC4)cc32)sc1C(N)=O)c1ccccc1C(F)(F)F | 0.0853 | 1.42 | 0.143 | 2.25 | 0.0859 | 2.98 | 0.0997 | 3.18 | 1.55 | 6.16 | 0.0752 | 0.401 | 0.523 | 4.24 | 0.144 | 1.08 | 0.801 | 4.52 |  | 
Fc1cccc(C=NC23CC4CC(CC(C4)C2)C3)c1 |  | > 100 |  | > 100 |  | > 100 |  | > 100 |  | > 100 |  | > 100 |  | > 100 |  | > 100 |  | > 100 |  | 
CC(=O)[CH-]C(=O)c1ccccc1.CC(=O)[CH-]C(=O)c1ccccc1.[O-]Cc1cccs1.[O-]Cc1cccs1.[Ti+4] | 73.1 | > 100 | > 100 | > 100 | > 100 | > 100 | 33 | > 100 | 82.3 | > 100 |  |  | > 100 | > 100 | 71.2 | > 100 | > 100 | > 100 |  | 
Clc1ccc(C2=NN(c3ccccc3)C3c4cc(Br)ccc4OCC23)cc1 (configuration not stated) |  | > 100 |  | > 100 |  | > 100 |  | > 100 |  |  |  | > 100 |  | > 100 |  | > 100 |  | > 100 |  | 
Cc1ccc(NC(=O)CCC(=O)C2CC(=O)CCC2=O)cc1C (configuration not stated) |  |  |  | > 100 |  | > 100 |  | > 100 |  | > 100 |  | > 100 |  | > 100 |  | > 100 |  | > 100 |  | 
Nc1ccc(C(=O)O)c2[nH]c3ccccc3c(=O)c12 |  | > 100 |  | > 100 |  | > 100 |  | > 100 |  |  |  | > 100 |  | > 100 |  | > 100 |  | > 100 | > 100 | 
C=C(CNCCc1ccc(O)cc1)[C@@H]1CC[C@]2(CO)CC[C@]3(C)[C@H](CC[C@@H]4[C@@]5(C)CCC(NCCO)C(C)(C)[C@@H]5CC[C@]43C)[C@@H]12 (some centres not stated) | 1.24 | 2.52 | 1.85 | 3.52 | 1.57 | 3.21 | 0.351 | 1.19 | 2 | 4.31 | 1.54 | 3.13 | 1.25 | 2.58 | 1.5 | 2.87 | 1.79 | 3.2 |  | 
Nc1cc2c3c(cccc3c1)C(=O)N(CCN1CCN(CCN3C(=O)c4cccc5cc(N)cc(c45)C3=O)CC1)C2=O |  | > 100 |  | > 100 |  | > 100 |  | > 100 |  | > 100 |  | > 100 |  | > 100 |  | > 100 |  | > 100 |  | 
CC1(C)OCC(C2OC(On3nnc4ccc(Cl)cc43)C3OC(C)(C)OC23)O1 (configuration not stated) |  | > 100 |  | > 100 |  |  |  | > 100 |  | > 100 |  | > 100 |  | > 100 |  | > 100 |  | > 100 | > 100 | 
CCOC(=O)C12CN(C34CC5CC(CC(C5)C3)C4)CC(C(=O)OCC)(C1=O)C(c1ccccc1)OC2c1ccccc1 (configuration not stated) |  | > 100 |  | > 100 |  | > 100 |  |  |  | > 100 |  | > 100 |  | > 100 |  |  |  | > 100 |  | 
N/C(=N\N=C=C1C(=O)Nc2ccc(F)cc21)NO |  | 65.9 |  | > 100 |  | > 100 |  | > 100 |  |  |  | > 100 |  | > 100 |  | > 100 |  | > 100 | > 100 | 
COC(=O)C1(C)CCc2c(ccc3ccccc23)C1=O (configuration not stated) |  | > 100 |  | > 100 |  | > 100 |  | > 100 |  |  |  | 42.2 |  | > 100 |  | > 100 |  | > 100 | > 100 | 
Cc1cc(C)c2c(c1C)CN1CN2Cc2c(C)c(C)cc(C)c21 |  | 58.1 |  | > 100 |  |  |  | > 100 |  | > 100 |  | > 100 |  | > 100 |  | > 100 |  | > 100 | > 100 | 
COc1ccc2c(c1)C(=O)/C(=C/c1ccc(OCC(=O)c3ccc(Cl)cc3)cc1)O2 | 12.2 | 79.9 | 62.5 | > 100 |  |  | 3.07 | 13 | 12.2 | 37.1 | 4.64 | 18 | 21.7 | 47.2 | 17.9 | 34.8 | 15.9 | 30.5 | 6.34 | 2.15
O=C1c2cccnc2-c2nc(-c3ccccc3)cc3c2c1nc1ccccc13 | 10.5 | 23.1 | 9.58 | 25.2 | 4.95 | 18.5 | 1.91 | 7.2 | 9.39 | 24.1 | 6 | 19 | 5.88 | 20.1 | 17.8 | 43.3 | 1.09 | 8 |  | 
COC(=O)[C@@]12C3=NO[C@]1(C(=O)OC)C(O[Si](C)(C)C(C)(C)C)C1OC(C)(C)OC1[C@@H]2[C@@H](OCc1ccccc1)CC3 (some centres not stated) |  | > 100 |  | > 100 |  | > 100 |  | > 100 |  | > 100 |  | > 100 |  | > 100 |  | > 100 |  |  |  | 
CCOC(=O)c1c(-c2ccccc2)[nH]c2ccccc2c1=O |  | > 100 |  | > 100 |  | > 100 |  | > 100 |  |  |  | > 100 |  | > 100 |  |  |  | > 100 | > 100 | 
Cn1cc(-c2nonc2-c2cn(C)c3ccc(Br)cc23)c2ccccc21 | 1.77 | 7.71 | 7.52 | > 100 | 5.45 | > 100 | 4.3 | > 100 | 4.61 | > 100 |  |  | 6.18 | > 100 | 2.19 | 6.13 | 4.29 | > 100 |  | 
CC1=C(C(=O)Nc2cc(F)c(F)cc2F)C(c2cccc([N+](=O)[O-])c2)C(C(=O)Nc2ccccc2C(F)(F)F)=C(C)N1 (configuration not stated) |  | 38.4 |  | 88.9 |  | 36.5 |  |  |  | 74.7 |  | > 100 |  | 40.3 |  | 53.1 |  | 66.1 |  | 
Cc1ccc(C)c(NC(=O)CCC(=O)CC(=O)C(C)(C)C)c1 |  | > 100 |  | > 100 |  | > 100 |  | > 100 |  |  |  | > 100 |  | > 100 |  | > 100 |  | > 100 |  | 
